From patent US20140243302A1, “BRIDGED BICYCLIC COMPOUNDS FOR THE TREATMENT OF BACTERIAL INFECTIONS” (priority 2011, published 2014) come the findings set out here.

Where a name gives a salt, the structure may show the parent alone.

For the first experiment, the system named is Staphylococcus aureus Smith. Description: MIC assay, modified agar dilution (CLSI), S. aureus Smith. The experiment is classed as cell-based. The conditions noted are these: Staphylococcus aureus, agar dilution, 35° C., 16-20 hr; lowest concentration that completely inhibited growth; read-out: S_aureus_Smith_WT_MIC. The method, then:
The potency of antibacterial agents was measured using the Minimal Inhibitory Concentration (MIC) assay. The assay measures the ability of test agents to inhibit the growth of bacteria on agar-containing medium.
The bacterial test strains used were exemplified by Staphylococcus aureus Smith, Enterococcus faecium A2373, Streptococcus pneumoniae IID554, and Escherichia coli ATCC 25922. All strains were maintained as frozen stocks held at −80° C. in skim milk. Other bacterial test strains are well known to those skilled in the art and can be used for testing.
Mueller Hinton Agar (MHA BBL; Becton Dickinson and Company, Sparks, Md.) was used as the medium. MHA was supplemented with 5% defibrinated horse blood (DHB; Nippon Biotest Laboratories inc.) to support the growth of S. pneumoniae and E. faecium.
MIC values were determined using a modified agar dilution procedure described by the Clinical and Laboratory Standards Institute (CLSI; Methods for Dilution Antimicrobial Susceptibility Tests for Bacteria That Grow Aerobically; Approved Standard—Eighth Edition. CLSI document M07-A8 [ISBN 1-56238-689-1]. Clinical and Laboratory Standards Institute, 940 West Valley Road, Suite 1400, Wayne, Pa. 19087-1898 USA, 2009).
Stock solutions (6.4 mgmL) of test compounds were prepared in 100% ultrapure dimethyl sulfoxide (DMSO; source) on the day of the assay. Subsequent serial dilutions were performed to generate solutions with concentrations ranging from 6.4 to 0.0002 mgmL in 100% DMSO.
Agar medium containing test compound was prepared by adding the dilutions of antimicrobial solution to molten MHA at a temperature of 45-50° C. The agar and antimicrobial solution were mixed thoroughly, poured into petri dishes, and allowed to solidify at room temperature. The final concentration of test compounds in the MHA medium ranged from 128 to 0.001 μg/mL with two-fold dilutions. MHA plates lacking antibacterial compound were used for growth controls.
Prior to susceptibility testing, the bacterial isolates were removed from frozen storage, thawed at room temperature, sub-cultured to MHA medium and incubated overnight at 35° C. S. pneumoniae and E. faecium were subcultured on MHA supplemented with 5% DHB at 35° C. with […]. Colonies from each plate were suspended in normal saline. This suspension was adjusted to the turbidity of a 0.5 McFarland standard, 1-2×10^8 colony forming units (CFU) per mL, and diluted 100-fold to 1-2×10^6 CFUmL.
Suspensions of bacterial cultures were applied to the surface of MHA plates containing test compound as well as to a growth control plate lacking test compound using an inoculum-replicating device with 4 mm pins. The replicating device applied 5 uL of the bacterial suspension such that each spot contained approx. 1×10^4 CFU. Plates were dried for about 40 min and incubated at 35° C. for 16-20 hr prior to scoring.
A general note: Agar dilution tests growth on a series of plates holding different concentrations.
In the case of `COc1ccc2ncc(Cl)c(CC(O)C34CCC(NCc5ccc6c(n5)NC(=O)CO6)(CC3)CC4)c2n1.Cl` (single isomer, unassigned) [Example 14a, 6-((4-(2-(3-Chloro-6-methoxy-1,5-naphthyridin-4-yl)-1-hydroxyethyl)bicyclo[2.2.2]octan-1-ylamino)methyl)-2H-pyrido[3,2-b][1,4]oxazin-3(4H)-one Hydrochloride], the MIC is 0.031 µg/mL.
Same read-out and setting: next, `COc1ccc2ncc(F)c(CC(N)C34CCC(NCc5ccc6c(n5)NC(=O)CO6)(CC3)CO4)c2n1` (single isomer, unassigned) [Example 21a, 6-((1-(1-Amino-2-(3-fluoro-6-methoxy-1,5-naphthyridin-4-yl)ethyl)-2-oxabicyclo[2.2.2]octan-4-ylamino)methyl)-2H-pyrido[3,2-b][1,4]oxazin-3(4H)-one Dihydrochloride]: 0.25 µg/mL.

Still in this experiment, the particulars now being: agar dilution, 35° C., 16-20 hr; lowest concentration that completely inhibited growth.
Turning to `COc1ccc2ncc(Cl)c(C(O)CC34CCC(NCc5ccc6c(n5)NC(=O)CO6)(CC3)CC4)c2n1` (single isomer, unassigned) [Example 13a, 6-((4-(2-(3-Chloro-6-methoxy-1,5-naphthyridin-4-yl)-2-hydroxyethyl)bicyclo[2.2.2]octan-1-ylamino)methyl)-2H-pyrido[3,2-b][1,4]oxazin-3(4H)-one], the S_aureus_Smith_WT_MIC was 0.0310 µg/mL.
Same read-out and setting: next, `COc1ccc2ncc(Cl)c(C(O)CC34CCC(NCc5ccc6c(n5)NC(=O)CO6)(CC3)CC4)c2n1` (single isomer, unassigned) [Example 13b, 6-((4-(2-(3-Chloro-6-methoxy-1,5-naphthyridin-4-yl)-2-hydroxyethyl)bicyclo[2.2.2]octan-1-ylamino)methyl)-2H-pyrido[3,2-b][1,4]oxazin-3(4H)-one]: 0.0630 µg/mL; `COc1ccc2ncc(Cl)c(CC(O)C34CCC(NCc5ccc6c(n5)NC(=O)CO6)(CC3)CC4)c2n1.Cl` (single isomer, unassigned) [Example 14b, 6-((4-(2-(3-Chloro-6-methoxy-1,5-naphthyridin-4-yl)-1-hydroxyethyl)bicyclo[2.2.2]octan-1-ylamino)methyl)-2H-pyrido[3,2-b][1,4]oxazin-3(4H)-one Hydrochloride]: 0.0310 µg/mL; `COc1ccc2ncc(F)c(CC(O)C34CCC(NCc5ccc6c(n5)NC(=O)CO6)(CC3)CO4)c2n1.Cl` (single isomer, unassigned) [Example 20b, 6-((1-(2-(3-Fluoro-6-methoxy-1,5-naphthyridin-4-yl)-1-hydroxyethyl)-2-oxabicyclo[2.2.2]octan-4-ylamino)methyl)-2H-pyrido[3,2-b][1,4]oxazin-3(4H)-one Hydrochloride]: 0.0630 µg/mL.
The same measure, in the same setting: next, `COc1ccc2ccc(=O)n(CC(O)C34CCC(NCc5ccc6c(n5)NC(=O)CO6)(CC3)CO4)c2n1` (single isomer, unassigned) [Example 52a, 6-(((1-(1-Hydroxy-2-(7-methoxy-2-oxo-1,8-naphthyridin-1(2H)-yl)ethyl)-2-oxabicyclo[2.2.2]octan-4-yl)amino)methyl)-2H-pyrido[3,2-b][1,4]oxazin-3(4H)-one]: 0.0310 µg/mL.
The same measure, in the same setting: for `COc1ccc2ccc(=O)n(CC(O)C34CCC(NCc5ccc6c(n5)NC(=O)CO6)(CC3)CO4)c2n1` (single isomer, unassigned) [Example 52b, 6-(((1-(1-Hydroxy-2-(7-methoxy-2-oxo-1,8-naphthyridin-1(2H)-yl)ethyl)-2-oxabicyclo[2.2.2]octan-4-yl)amino)methyl)-2H-pyrido[3,2-b][1,4]oxazin-3(4H)-one] the value was 0.0630 µg/mL.
On to `COc1cnc2ccc(=O)n(CC(O)C34CCC(NCc5ccc6c(n5)NC(=O)CO6)(CC3)CO4)c2c1` (single isomer, unassigned) [Example 54a, 6-(((1-(1-Hydroxy-2-(7-methoxy-2-oxo-1,5-naphthyridin-1(2H)-yl)ethyl)-2-oxabicyclo[2.2.2]octan-4-yl)amino)methyl)-2H-pyrido[3,2-b][1,4]oxazin-3(4H)-one], for which the S_aureus_Smith_WT_MIC was 0.250 µg/mL.
Consider `COc1cnc2ccc(=O)n(CC(O)C34CCC(NCc5ccc6c(n5)NC(=O)CO6)(CC3)CO4)c2c1` (single isomer, unassigned) [Example 54b, 6-(((1-(1-hydroxy-2-(7-methoxy-2-oxo-1,5-naphthyridin-1(2H)-yl)ethyl)-2-oxabicyclo[2.2.2]octan-4-yl)amino)methyl)-2H-pyrido[3,2-b][1,4]oxazin-3(4H)-one], for which the S_aureus_Smith_WT_MIC was determined as 0.0160 µg/mL.
Same read-out and setting: for `O=C1COc2ccc(CNC34CCC(C(O)Cn5c(=O)ccc6ncc(F)cc65)(CC3)OC4)nc2N1` (single isomer, unassigned) [Example 55a, 6-((1-(2-(7-Fluoro-2-oxo-1,5-naphthyridin-1(2H)-yl)-1-hydroxyethyl)-2-oxabicyclo[2.2.2]octan-4-ylamino)methyl)-2H-pyrido[3,2-b][1,4]oxazin-3(4H)-one] the value was 1.00 µg/mL.

Still in this experiment, the particulars now being: agar dilution, 35° C., 16-20 hr; lowest concentration that completely inhibited growth; Dihydrochloride.
Regarding `COc1ccc2ncc(F)c(CC(N)C34CCC(NCc5ccc6c(n5)NC(=O)CO6)(CC3)CO4)c2n1` (single isomer, unassigned) [Example 21b, 6-((1-(1-Amino-2-(3-fluoro-6-methoxy-1,5-naphthyridin-4-yl)ethyl)-2-oxabicyclo[2.2.2]octan-4-ylamino)methyl)-2H-pyrido[3,2-b][1,4]oxazin-3(4H)-one Dihydrochloride], the S_aureus_Smith_WT_MIC worked out at 0.125 µg/mL.

The experiment is the same for the next values; noted with them: agar dilution, 35° C., 16-20 hr; lowest concentration that completely inhibited growth; Hydrochloride.
Take `COc1ccc2ncc(F)c(C(O)C(O)C34CCC(NCc5ccc6c(n5)NC(=O)CO6)(CC3)CO4)c2n1.Cl` (single isomer, unassigned) [Example 26a, 6-((1-(2-(3-Fluoro-6-methoxy-1,5-naphthyridin-4-yl)-1,2-dihydroxyethyl)-2-oxabicyclo[2.2.2]octan-4-ylamino)methyl)-2H-pyrido[3,2-b][1,4]oxazin-3(4H)-one Hydrochloride]: the S_aureus_Smith_WT_MIC was 0.250 µg/mL.
Same read-out and setting: for `COc1ccc2ncc(F)c(C(O)C(O)C34CCC(NCc5ccc6c(n5)NC(=O)CO6)(CC3)CO4)c2n1.Cl` (single isomer, unassigned) [Example 26b, 6-((1-(2-(3-Fluoro-6-methoxy-1,5-naphthyridin-4-yl)-1,2-dihydroxyethyl)-2-oxabicyclo[2.2.2]octan-4-ylamino)methyl)-2H-pyrido[3,2-b][1,4]oxazin-3(4H)-one Hydrochloride] the value was 1.00 µg/mL.
The same measure, in the same setting: for `COc1ccc2ncc(F)c(C3OC(=O)OC3C34CCC(NCc5ccc6c(n5)NC(=O)CO6)(CC3)CO4)c2n1.Cl` (single isomer, unassigned) [Example 27a, 6-((1-(5-(3-Fluoro-6-methoxy-1,5-naphthyridin-4-yl)-2-oxo-1,3-dioxolan-4-yl)-2-oxabicyclo[2.2.2]octan-4-ylamino)methyl)-2H-pyrido[3,2-b][1,4]oxazin-3(4H)-one Hydrochloride] the value was 0.250 µg/mL.
The same measure, in the same setting: for `COc1ccc2ncc(F)c(C3OC(=O)OC3C34CCC(NCc5ccc6c(n5)NC(=O)CO6)(CC3)CO4)c2n1.Cl` (single isomer, unassigned) [Example 27b, 6-((1-(5-(3-fluoro-6-methoxy-1,5-naphthyridin-4-yl)-2-oxo-1,3-dioxolan-4-yl)-2-oxabicyclo[2.2.2]octan-4-ylamino)methyl)-2H-pyrido[3,2-b][1,4]oxazin-3(4H)-one hydrochloride] the value was 2.00 µg/mL; for `COc1ccc2ncc(=O)n(CC(O)C34CCC(NCc5ccc6c(n5)NC(=O)CO6)(CC3)CO4)c2n1.Cl` (single isomer, unassigned) [Example 51a, 6-(((1-(1-Hydroxy-2-(6-methoxy-3-oxopyrido[2,3-b]pyrazin-4(3H)-yl)ethyl)-2-oxabicyclo[2.2.2]octan-4-yl)amino)methyl)-2H-pyrido[3,2-b][1,4]oxazin-3(4H)-one Hydrochloride], 0.0310 µg/mL; for `COc1ccc2ncc(=O)n(CC(O)C34CCC(NCc5ccc6c(n5)NC(=O)CO6)(CC3)CO4)c2n1.Cl` (single isomer, unassigned) [Example 51b, 6-(((1-(1-hydroxy-2-(6-methoxy-3-oxopyrido[2,3-b]pyrazin-4(3H)-yl)ethyl)-2-oxabicyclo[2.2.2]octan-4-yl)amino)methyl)-2H-pyrido[3,2-b][1,4]oxazin-3(4H)-one hydrochloride], 0.0630 µg/mL.
